These results are taken from patent US9510598B2, “Nitrogen-containing heterocyclic compounds for plant disease control” (BAYER CROPSCIENCE AG, priority 2012, dated 2016).

The first series is classed as physicochemical. The conditions noted are these: HPLC on reversed phase columns, method [a]: pH 2.7, 0.1% formic acid in water and acetonitrile, linear gradient 10% to 95% acetonitrile.
As for `C#Cc1cnc2ccc(C3=NOC(C)(C(=O)N(Cc4cc(F)cc5c4C(C)(C)CCC5)C4CC4)C3)cc2c1` (racemic) [compound 816], the “log P” value is 5.54[a].

Turning to `CC1(C(=O)NCc2cccnc2O)CC(c2ccc3ncc(Br)cc3c2)=NO1` (racemic) [compound 817], the “log P” value is 1.88[a]. Regarding `C#Cc1cnc2ccc(C3=NOC(OC)(C(=O)NCCC4CCCO4)C3)cc2c1` (racemic) [compound 818], the “log P” value was 2.11[a]. With `CC(C)(C)Oc1ncccc1CNC(=O)C1(C)CC(c2ccc3ncc(Br)cc3c2)=NO1` (racemic) [compound 819], the “log P” value is 4.46[a].

For `C#Cc1cnc2ccc(C3=NOC(OC)(C(=O)NCc4cn(CC)nc4C(F)(F)F)C3)cc2c1` (racemic) [compound 820], the “log P” value is 2.80[a].

For the compound `CCn1cc(CNC(=O)C2(C)CC(c3ccc4ncc(Br)cc4c3)=NO2)c(C(F)(F)F)n1` (racemic) [compound 821], the “log P” value is 3.13[a]. Still for that read-out and setting: the value for `COC1(C(=O)NCCC2CC2)CC(c2ccc3ncc(Br)cc3c2)=NO1` (racemic) [compound 822] was 3.03[a]; that for `COC1(C(=O)NCCC2CCOC2)CC(c2ccc3ncc(Br)cc3c2)=NO1` (racemic) [compound 823] was 2.27[a].

Staying with this series, now noted: method [a]: HPLC/LC-MS on reversed phase at pH 2.7, 0.1% formic acid in water / acetonitrile, gradient 10% to 95% acetonitrile.
With `CCn1cc(CNC(=O)C2(C)ON=C(c3ccc4ncc(Br)cc4c3)C2OC)c(C)n1` (mixture of isomers) [compound 433], the “log P” value was 2.44[a]. On to `C#Cc1cnc2ccc(C3=NOC(C)(C(=O)NCCCN(C)C)C3)cc2c1` (racemic) [compound 363], for which the “log P” value was 1.11[a].

Turning to `C#Cc1cnc2ccc(C3=NOC(C)(C(=O)NC(C)CCCCCC)C3)cc2c1` (racemic) [compound 367], the “log P” value is 4.19[a]. For the compound `C#Cc1cnc2ccc(C3=NOC(C)(C(=O)NC(C)CCC(C)C)C3)cc2c1` (racemic) [compound 369], the “log P” value was 3.73[a].

`CCCCCCC(C)NC(=O)C1(C)CC(c2ccc3ncc(Br)cc3c2)=NO1` (racemic) [compound 370]: the “log P” value is 4.73[a].

In the case of `CC1CCCC(C)C1NC(=O)C1(C)CC(c2ccc3ncc(Br)cc3c2)=NO1` (racemic) [compound 372], the “log P” value is 4.29[a]. As for `CC(C)(C)ONC(=O)C1(C)CC(c2ccc3ncc(Br)cc3c2)=NO1` (racemic) [compound 373], the “log P” value was 2.66[a]. On the same count and under the same terms, the value for `CC(ONC(=O)C1(C)CC(c2ccc3ncc(Br)cc3c2)=NO1)C1CC1` (racemic) [compound 375] was 2.73[a]. Consider `CCn1cc(CNC(=O)C2(C)CC(c3ccc4ncc(-c5ccco5)cc4c3)=NO2)c(C)n1` (racemic) [compound 379], for which the “log P” value is 2.37[a].

As for `CCn1cc(CNC(=O)C2(C)ON=C(c3ccc4ncc(Br)cc4c3)C2C)c(C)n1` (racemic) [compound 385], the “log P” value was 2.55[a].

For the compound `CCn1cc(CNC(=O)C2(CC(=O)OC)CC(c3ccc4ncc(Br)cc4c3)=NO2)c(C)n1` (racemic) [compound 386], the “log P” value is 2.31[a]. Take `COC(=O)CC1(C(=O)NC(C)C)CC(c2ccc3ncc(Br)cc3c2)=NO1` (racemic) [compound 387]: the “log P” value was 2.66[a].

Take `CCOC1C(c2ccc3ncc(Br)cc3c2)=NOC1(C)C(=O)NC(C)C` (racemic) [compound 393]: the “log P” value was 3.35[a]. For `O=C(NC1CC1)C12CC1C(c1ccc3ncc(Br)cc3c1)=NO2` (racemic) [compound 398], the “log P” value was 2.50[a]. Take `CCn1cc(CNC(=O)C23CC2C(c2ccc4ncc(Br)cc4c2)=NO3)c(C)n1` (racemic) [compound 399]: the “log P” value is 2.44[a]. Same read-out and setting: the same measure for `CC1(C)OCC(CNC(=O)C23CC2C(c2ccc4ncc(Br)cc4c2)=NO3)O1` (racemic) [compound 400]: 2.75[a]. Take `CCOCCCNC(=O)C12CC1C(c1ccc3ncc(Br)cc3c1)=NO2` (racemic) [compound 401]: the “log P” value is 2.84[a].

In the case of `CC(C)NC(=O)C12ON=C(c3ccc4ncc(Br)cc4c3)C1C2C` (racemic) [compound 403], the “log P” value was 3.11[a]. `CCn1cc(CNC(=O)C2(CC3CC3)CC(c3ccc4ncc(Br)cc4c3)=NO2)c(C)n1` (racemic) [compound 425]: the “log P” value was 3.01[a]. Still for that read-out and setting: the value for `CC(C)NC(=O)C1(C)CC(c2ccc3ncc(NC(=O)OC(C)(C)C)cc3c2)=NO1` (racemic) [compound 430] was 2.77[a]. For `CCn1cc(CNC(=O)C2(C)CC(c3ccc4nc(C#N)c(I)cc4c3)=NO2)c(C)n1` (racemic) [compound 431], the “log P” value is 2.57[a]. With `CCn1cc(CNC(=O)C2(C)CC(c3ccc4nc(Cl)c(I)cc4c3)=NO2)c(C)n1` (racemic) [compound 432], the “log P” value is 2.94[a]. `CCn1cc(CNC(=O)C2(C)CC(c3ccc4ncc(N)cc4c3)=NO2)c(C)n1` (racemic) [compound 452]: the “log P” value is 1.12[a].

Still in this series, the particulars now being: method [a]: HPLC/LC-MS on reversed phase at pH 2.7, 0.1% formic acid in water / acetonitrile, linear gradient 10% to 95% acetonitrile.
For `CCC(C)NC(=O)C1(C)CC(c2cc3cc(Br)cnc3c(F)c2OC)=NO1` (stereo not shown) [compound 27], the “log P” value was 3.29^[a]. As for `CC(C)NC(=O)C1(Cc2ccccc2)CC(c2ccc3ncc(Br)cc3c2)=NO1` (stereo not shown) [compound 57], the “log P” value is 3.87^[a]. Regarding `O=C(NC1CC1)C1(Cc2ccccc2)CC(c2ccc3ncc(Br)cc3c2)=NO1` (stereo not shown) [compound 60], the “log P” value was 3.46^[a]. Still for that read-out and setting: the value for `CC(C)NC(=O)C1(C(C)C)CC(c2ccc3ncc(Br)cc3c2)=NO1` (stereo not shown) [compound 62] was 3.51^[a]; that for `CC(C)C1(C(=O)NC2CC2)CC(c2ccc3ncc(Br)cc3c2)=NO1` (stereo not shown) [compound 65] was 3.11^[a]; that for `CCCCC1(C(=O)NCc2cn(CC)nc2C)CC(c2ccc3ncc(Br)cc3c2)=NO1` (stereo not shown) [compound 72] was 3.37^[a]. As for `CCCCC1(C(=O)NC(C)C)CC(c2ccc3ncc(Br)cc3c2)=NO1` (stereo not shown) [compound 73], the “log P” value is 4.01^[a]. Still for that read-out and setting: the same measure for `CC(C)NC(=O)C1(C)CC(c2ccc3ncc([S+](C)[O-])cc3c2)=NO1` (stereo not shown) [compound 77]: 1.49^[a]; for `CC(C)NC(=O)C1(C)CC(c2ccc3ncc(C#N)cc3c2)=NO1` (stereo not shown) [compound 79]: 2.12^[a]; for `CC(C)NC(=O)C1(CBr)CC(c2ccc3ncc(Br)cc3c2)=NO1` (stereo not shown) [compound 81]: 3.04^[a]. As for `CC1(C(=O)NCc2cccs2)CC(c2ccc3ncc(Br)cc3c2)=NO1` (stereo not shown) [compound 89], the “log P” value is 3.06^[a].

With `Cc1ccc(CNC(=O)C2(C)CC(c3ccc4ncc(Br)cc4c3)=NO2)o1` (stereo not shown) [compound 90], the “log P” value is 3.15^[a].

Still in this series, the particulars now being: method [a]: HPLC/LC-MS on reversed phase at pH 2.7, 0.1% formic acid in water and acetonitrile, linear gradient 10% to 95% acetonitrile.
`CNC(=O)C1(C)CC(c2ccc3ncccc3c2)=NO1` (stereo not shown) [compound 2]: the “Log P” value was 1.3^[a].

Consider `CC1(C(=O)NC2CC2)CC(c2ccc3ncccc3c2)=NO1` (stereo not shown) [compound 3], for which the “Log P” value is 1.04^[a]. On the same count and under the same terms, the value for `CON(OC)C(=O)C1(C)CC(c2cc3cc(Br)cnc3c(F)c2F)=NO1` (stereo not shown) [compound 9] was 2.92^[a]; that for `CCn1cc(CNC(=O)C2(C)CC(c3cc4cc(Br)cnc4c(F)c3F)=NO2)cn1` (stereo not shown) [compound 13] was 2.5^[a]. As to `CCC(C)NC(=O)C1(C(F)(F)F)CC(c2cc3cc(Br)cnc3c(F)c2F)=NO1` (stereo not shown) [compound 15], the “Log P” value is 4.04^[a].

With `CCOCCCNC(=O)C1(C(F)(F)F)CC(c2cc3cc(Br)cnc3c(F)c2F)=NO1` (stereo not shown) [compound 16], the “Log P” value was 3.71^[a]. Turning to `COc1ccc(CNC(=O)C2(C)CC(c3cc4cc(Br)cnc4c(F)c3F)=NO2)cc1OC` (stereo not shown) [compound 19], the “Log P” value is 3.02^[a].

The same series, now with this note: pH 2.7.
The compound `COC(=O)C1(C)CC(c2ccc3ncc(I)cc3c2)=NO1` (stereo not shown) [Compound No. 11-30] came in with a chromatographic logP of 2.71. For the compound `CC(C)NC(=O)C1(C)CC(c2ccc3ncc(-c4cccs4)cc3c2)=NO1` (stereo not shown) [Compound No. 144], the chromatographic logP turned out to be 3.04. `CC(C)NC(=O)C1(C)CC(c2ccc3ncc(-c4cncnc4)cc3c2)=NO1` (stereo not shown) [Compound No. 258] registered a chromatographic logP of 1.79. Compound `CCOCCCNC(=O)C1(C(F)F)CC(c2ccc3ncc(Br)cc3c2)=NO1` (stereo not shown) [Compound No. 623, 3-(3-bromoquinolin-6-yl)-5-(difluoromethyl)-N-(3-ethoxypropyl)-4,5-dihydro-1,2-oxazole-5-carboxamide] came in with a chromatographic logP of 3.06.

The series is the same for the next values; noted with them: reversed phase HPLC column; HPLC reversed phase, pH 2.7, 0.1% formic acid in water / acetonitrile, linear gradient 10% to 95% acetonitrile; calibration with alkan-2-ones; read-out: log P (HCOOH).
Regarding `O/N=C/c1ccc2ncc(Cl)cc2c1` [1-(3-chloroquinolin-6-yl)-N-hydroxymethanimine], the chromatographic logP was 1.78. As for `O/N=C/c1ccc2ncc(I)cc2c1` [1-(3-iodoquinolin-6-yl)-N-hydroxymethanimine], the chromatographic logP came to 1.98. Same read-out and setting: the value for `O/N=C(\Cl)c1ccc2ncc(I)cc2c1` [3-Iodo-N-hydroxyquinoline-6-carboximidoyl chloride] was 2.63. For the compound `O=Cc1cc2cc(Br)cnc2c(F)c1F` [3-bromo-7,8-difluoroquinoline-6-carbaldehyde], the chromatographic logP turned out to be 2.71. `O=Cc1ccc2ncc(Br)cc2c1` [3-bromoquinoline-6-carbaldehyde]: the chromatographic logP turned out to be 2.08. On to `O/N=C(\Cl)c1ccc2ncc(Cl)cc2c1` [3-chloro-N-hydroxyquinoline-6-carboximidoyl chloride], for which the chromatographic logP came out at 1.96.

Take `O=Cc1ccc2ncc(Cl)cc2c1` [3-chloroquinoline-6-carbaldehyde]: the chromatographic logP is 1.96. `O=Cc1ccc2ncc(I)cc2c1` [3-iodoquinoline-6-carbaldehyde]: the chromatographic logP came out at 2.12.

Turning to `CC(C)NC(=O)C1(C)CC(c2ccc3ncc(-c4ccccc4)cc3c2)=NO1` (stereo not shown) [Compound No. 141], the chromatographic logP worked out at 3.02. For the compound `CCn1cc(CNC(=O)C23OCCCC2C(c2ccc4ncc(Br)cc4c2)=NO3)c(C)n1` (stereo not shown) [Compound No. 266], the chromatographic logP worked out at 2.59.
